Test results taken from patent US20100184094A1, “USE OF MDCK CELLS IN THE EVALUATION OF CHOLESTEROL MODULATORS” (priority 2007, published 2010).

Target: T1, rat NPC1L1 (Rattus norvegicus, UniProt Q6T3U3)
T1 construct: expressed in transfected cells
Assay: [3H]AS binding to rNPC1L1/HEK293 cells (saturation, kinetics, competition, acid wash)
Details: for IC50: 5.36 nM [3H]AS, 4 h, 37° C., read-out: IC50 inhibition of [3H]AS binding; for Ki: rNPC1L1/HEK293 cells
Procedure: rNPC1L1/HEK293 and TsA201 cells were seeded at a density of 10,000 cells per well in 96-well poly-D-lysine coated plates and cells were allowed to attach for approximately 18 h at 37° C. TsA201 cells were subsequently transfected with dog NPC1L1/pcDNA5/FRT according to the manufacturer's instructions (Roche) and incubated for 3 days at 37° C. MDCKII-derived, LLC-PKI, HepG2, or CaCo-2 cells were seeded at a density of 25,000 cells per well in 96-well tissue culture treated plates, and cells were allowed to attach and differentiate for approximately 72 h at 37° C., except for CaCo-2 cells where differentiation took approximately 14 days at 37° C. […] Duplicate samples were averaged for each experimental point. […] To determine the kinetics of ligand association, cells were incubated with [^3H]AS for different periods of time. Dissociation kinetics were determined by addition of 100 μM EZE-gluc, and incubating for different periods of time. Nonspecific binding was defined in the presence of 100 μM EZE-gluc. At the end of the incubation period, cells were washed twice with 200 μl of pre-warmed DMEM to separate bound from free ligand, 1% SDS was added to the wells followed by 5 ml of Scintillant, and radioactivity associated with cells was determined using a β-counter. […] Thereafter, plates were placed on ice and cells were washed twice with ice-cold PBS, followed by ice-cold acid wash with DMEM, pH 3.5, for 1, 5 or 15 minutes. […] For Transwell experiments, MDCKII cells were seeded at 200,000 cells/well in a 24-well plate and incubated for 3 days at 37° C. […] Thereafter, both apical and basolateral compartments were washed three times with PBS, and the Transwell filter was cut out and its associated radioactivity determined using afi-counter. Data from saturation, competition and ligand dissociation experiments were analyzed as described in the literature; see, Priest, et al., 2004 Biochemistry 43:9866-9876; Knaus et al., 1995 Biochemistry 34:13627-13634. The association rate, k1, was determined by employing the pseudo-first-order rate equation k1=kobs([LR]e/[L][LR]max)) where [LR]max is the concentration of the complex at equilibrium, [L] is the concentration of ligand, [LR]max is the total receptor concentration, kobs is the slope of the pseudo-first order plot, ln([LR]e/([LR]e−[LR]t)) versus time, and [LR]t is the receptor-ligand complex at one given time point t.
Incubation of rNPC1L1/HEK293 cells with 5 nM [311]AS results in a time-dependent association of ligand with cells that reaches equilibrium in ˜3 h (FIG. 1B). The nonspecific binding component is time-independent and has been subtracted from the experimental data. A semilogarithmic transformation of the data yielded a linear dependence (FIG. 1B, inset), as expected for a pseudo-first order reaction, and the slope of this line gives kobs of 0.0208 min^−1. The association rate constant, k1, calculated as described under Example 3, is 2.4×10^6 M^−1 min^−1.
Ki values, determined as described above, are presented in Table 1 below and display the expected rank order of potency for interaction of these ligands with rat NPC1L1; Garcia-Calvo et al., 2005 Proc. Natl. Acad. Sci. USA 102:8132-8137.
Such an approach has previously been previously used to characterize cell surface, non-covalent interactions; Hopkins & Trowbridge, 1983 J. Cell Biol. 97:508-521; Chen et al., 1998 Proc. Natl. Acad. USA 95:6373-6378.

SMILES | IC50 | Ki
O=C1[C@H](CC[C@H](O)c2ccc(F)cc2)[C@@H](c2ccc(O)cc2)N1c1ccc(F)cc1 [EZE, Ezetimibe] | 398 nM | 209 ± 40.4 nM
COC(=O)[C@H]1O[C@@H](Oc2ccc([C@@H]3[C@@H](CC[C@H](O)c4ccc(F)cc4)C(=O)N3c3ccc(C#CCNS(C)(=O)=O)cc3)cc2)[C@H](O)[C@@H](O)[C@@H]1O [PS, 4-[(2S,3R)-3-[(3S)-3-(4-fluorophenyl)-3-hydroxypropyl]-1-(4-{3-[(methylsulfonyl)amino]prop-1-yn-1-yl}phenyl)-4-oxoazetidin-2-yl]phenyl methyl-β-D-glucopyranosiduronate] | 6.61 nM | 4.07 ± 1.47 nM
O=C(O)[C@H]1O[C@@H](Oc2ccc([C@@H]3[C@@H](CC[C@H](O)c4ccc(F)cc4)C(=O)N3c3ccc(F)cc3)cc2)[C@H](O)[C@@H](O)[C@@H]1O [EZE-gluc, ezetimibe glucuronide] | 182 nM | 95.1 ± 8.62 nM
